Data on 21 compounds can be found in patent US8258140B2 (Astrazeneca AB, priority 2009, dated 2012).

In the test the target is T1, Androgen Receptor (AR) in the LNCaP prostate carcinoma cell line (Homo sapiens, UniProt P10275, T878A).
T1 construct: cell based immuno-fluorescence assay using the LNCaP prostate epithelial cell line; host or cells: LNCaP clone FGC
T1 sequence (P10275 1-920 T878A): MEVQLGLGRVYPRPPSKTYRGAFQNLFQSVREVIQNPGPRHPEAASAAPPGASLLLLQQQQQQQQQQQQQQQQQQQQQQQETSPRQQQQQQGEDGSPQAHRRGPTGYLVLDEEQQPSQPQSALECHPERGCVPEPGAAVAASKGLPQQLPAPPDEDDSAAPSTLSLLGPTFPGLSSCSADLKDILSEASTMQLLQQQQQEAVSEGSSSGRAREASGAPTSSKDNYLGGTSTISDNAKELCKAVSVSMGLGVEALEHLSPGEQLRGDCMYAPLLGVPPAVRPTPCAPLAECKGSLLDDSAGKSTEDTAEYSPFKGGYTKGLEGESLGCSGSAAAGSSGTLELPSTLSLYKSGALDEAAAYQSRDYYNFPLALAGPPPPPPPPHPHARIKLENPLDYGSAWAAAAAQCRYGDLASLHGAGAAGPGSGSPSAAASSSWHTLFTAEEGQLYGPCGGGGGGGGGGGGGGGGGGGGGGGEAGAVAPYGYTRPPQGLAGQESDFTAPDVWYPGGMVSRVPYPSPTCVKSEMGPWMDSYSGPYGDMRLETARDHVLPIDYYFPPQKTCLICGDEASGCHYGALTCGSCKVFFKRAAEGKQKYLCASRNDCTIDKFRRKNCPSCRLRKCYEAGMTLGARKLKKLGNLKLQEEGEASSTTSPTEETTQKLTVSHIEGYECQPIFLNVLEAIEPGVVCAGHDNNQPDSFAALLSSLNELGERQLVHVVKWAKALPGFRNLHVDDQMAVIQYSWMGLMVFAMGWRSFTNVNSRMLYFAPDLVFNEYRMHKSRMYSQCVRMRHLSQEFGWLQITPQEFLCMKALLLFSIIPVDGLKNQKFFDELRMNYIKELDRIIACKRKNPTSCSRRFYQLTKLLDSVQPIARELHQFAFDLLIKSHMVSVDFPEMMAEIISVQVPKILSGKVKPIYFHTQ
In words: LNCaP Androgen Receptor Down-Regulation Cell Assay (immunofluorescence end point). In kind it is cell-based. As to conditions: LNCaP cells, compound incubation 20-22 hours, concentration giving 50% reduction of the AR signal. The procedure: The ability of compounds to reduce Androgen Receptor (AR) numbers was assessed in a cell based immuno-fluorescence assay using the LNCaP prostate epithelial cell line.
This immunofluorescence end point assay measures the ability of a test compound to down-regulate and reduce measured levels of the AR in the LNCaP prostate carcinoma cell line (LNCaP clone FGC (CRL-1740) obtained from the American Type Culture Collection (ATCC)).
LNCaP cells were cultured in Growth Medium (phenol red free Roswell Park Memorial Institute (RPMI) 1640 (Invitrogen Code no. 11835-063) containing 2 mM L-Glutamine (Invitrogen Code no. 25030-024) and 1% (v/v) Penicillin/Streptomycin (10000 units/ml Penicillin and 10000 μg/ml of Streptomycin utilising penicillin G (sodium salt) and streptomycin sulphate: prepared in normal saline, Invitrogen Code no. 15140122) and 10% (v/v) foetal bovine serum (FBS)) in a 5% CO2 air incubator at 37° C. Cells for assay were harvested from T175 stock flasks by washing once in PBS (phosphate buffered saline, pH 7.4) (Invitrogen Code no. 14190-094) and harvested using 5 mls of 1× Trypsin/ethylaminediaminetetraacetic acid (EDTA) (10× Trypsin-EDTA, 5.0 g/L Trypsin, 2.0 g/L of EDTA.4Na and 8.5 g/L of NaCl, without Phenol Red, Invitrogen Code no. 15400-054) diluted in PBS solution. A 5 ml volume of Growth Medium was added to each flask (as above except that 5% (v/v) charcoal stripped FBS (HyClone Code no. SH30068.03) was included instead of 10% (v/v) FBS). Cells were syringed at least twice using a sterile 18 G×1.5″ (1.2×40 mm) broad gauge needle and cell density was measured using a haemocytometer. Cells were further diluted in Growth Medium plus 5% (v/v) charcoal stripped FBS and seeded at a density of 6.5×10^3 cells per well (in 90 ul) into transparent, black, tissue culture treated 96 well plates (Packard, No. 6005182).
Test data reported herein was generated using two different compounds preparation and dosing methods. In method (1) a 10 mM compound stock solution in 100% (v/v) DMSO was serially diluted in 4-fold steps in 100% (v/v) DMSO using a Thermo Scientific Matrix SerialMate. The diluted compounds were then further diluted 1 in 30 in assay media using a Thermo Scientific Matrix PlateMate and a 10 μl aliquot of this dilution was dosed to cells manually using a multi-channel pipette. In method (2) starting with a 10 mM compound stock solution, the Labcyte Echo 550 was used to generate a compound concentration response set diluted in 30 μl of assay media. The Echo 550 is a liquid handler that uses acoustic technology to perform direct microplate-to-microplate transfers of DMSO compound solutions. The system can be programmed to transfer volumes as low as 2.5 nL in multiple increments between microplates and in so doing generates a serial dilution of compound which is then back-filled to normalise the DMSO concentration across the dilution range. A 10 μl volume of diluted compound is then dosed to cells using a Thermo Scientific Matrix PlateMate.
Plates were incubated overnight at 37° C., 5% CO2. Wells were then dosed with compound prepared by one of the 2 methods above and further incubated for 20-22 hours at 37° C., 5% CO2. Plates were fixed by the addition of 20 μl of 10% (v/v) formaldehyde solution (in PBS) to each well (final formaldehyde conc.=1.67% (v/v)) and left at room temperature for 10 mins. This fixative solution was removed and cells were washed with 250 μl of PBS/0.05% (v/v) Tween 20 (PBST) using an automated plate washer. This process was then repeated twice more.
Immunostaining was performed at room temperature. Cells were permeabilised by the addition of 35 μl of PBS containing 0.5% Tween 20 and incubated for 1 hour at room temperature. Permeabilisation solution was removed and cells were washed with 250 μl of PBST using an automated plate washer. This process was then repeated twice more. […]
The IC50 is the point on the concentration scale where inhibition reaches its midpoint. A higher IC50 goes with a need for much substance. The compound “6-(4-{4-[2-(1H-imidazol-1-yl)ethoxy]phenyl}piperazin-1-yl)-3-(trifluoromethyl)-7,8-dihydro[1,2,4]triazolo[4,3-b]pyridazine [Example 38]” registered an IC50 of 7.8 µM. This counts as single-digit micromolar.
Compound “6-(4-{4-[2-(1H-imidazol-1-yl)ethoxy]phenyl}piperidin-1-yl)-3-(trifluoromethyl)-7,8-dihydro[1,2,4]triazolo[4,3-b]pyridazine [Example 41]” yielded an IC50 of 2.9 µM.
`CC(=O)N1CCN([C@H](C)COc2ccc(C3CCN(C4=Nn5c(nnc5C(F)(F)F)CC4)CC3)cc2)CC1` (single isomer, unassigned) [Example 53] returned an IC50 of 0.18 µM.
As for `CC(=O)N1CCN([C@@H](C)COc2ccc(C3CCN(C4=Nn5c(nnc5C(F)(F)F)CC4)CC3)cc2)CC1` (single isomer, unassigned) [Example 54], the IC50 turned out to be 0.14 µM.
Compound `C[C@@H](COc1ccc(C2CCN(C3=Nn4c(nnc4C(F)(F)F)CC3)CC2)cc1)N1CCN(C)C(=O)C1` (single isomer, unassigned) [Example 55] displayed an IC50 of 0.18 µM. This IC50 and that of the compound before are within 1.5-fold of each other.
For `C[C@H](COc1ccc(C2CCN(C3=Nn4c(nnc4C(F)(F)F)CC3)CC2)cc1)N1CCN(C)C(=O)C1` (single isomer, unassigned) [Example 56], the midpoint of inhibition, the IC50, lay at 0.38 µM. This IC50 is about 2.1-fold higher than that of the compound before.
Compound `Fc1ccc(CN2CCN(C3=Nn4c(nnc4C(F)(F)F)CC3)CC2)cc1` [Example 1, 6-[4-(4-fluorobenzyl)piperazin-1-yl]-3-(trifluoromethyl)-7,8-dihydro[1,2,4]triazolo[4,3-b]pyridazine] returned an IC50 of 6 µM. Against the preceding compound, the IC50 is about 16-fold higher.
Turning to `FC(F)(F)c1nnc2n1N=C(N1CC=C(c3c[nH]c4ccccc34)CC1)CC2` [Example 2, 6-[4-(1H-indol-3-yl)-5,6-dihydropyridin-1(2H)-yl]-3-(trifluoromethyl)-7,8-dihydro-[1,2,4]triazolo[4,3-b]pyridazine], the IC50 was determined as 3.2 µM.
The value for `FC(F)(F)c1nnc2n1N=C(N1CCC(c3c[nH]c4ccccc34)CC1)CC2` [Example 3, 6-[4-(1H-indol-3-yl)piperidin-1-yl]-3-(trifluoromethyl)-7,8-dihydro[1,2,4]triazolo[4,3-b]pyridazine] was 1.2 µM.
Regarding `Fc1cccc(CN2CCN(C3=Nn4c(nnc4C(F)(F)F)CC3)CC2)c1` [Example 6, 6-[4-(3-fluorobenzyl)piperazin-1-yl]-3-(trifluoromethyl)-7,8-dihydro[1,2,4]triazolo[4,3-b]pyridazine], the IC50 turned out to be 4 µM.
`FC(F)(F)c1nnc2n1N=C(N1CCN(Cc3cccc(Cl)c3)CC1)CC2` [Example 7, 6-[4-(3-chlorobenzyl)piperazin-1-yl]-3-(trifluoromethyl)-7,8-dihydro[1,2,4]triazolo[4,3-b]pyridazine]: the IC50 came out at 2.9 µM. This IC50 and that of the compound before are within 1.5-fold of each other.
`FC(F)(F)c1cccc(CN2CCN(C3=Nn4c(nnc4C(F)(F)F)CC3)CC2)c1` [Example 8, 3-(trifluoromethyl)-6-{4-[3-(trifluoromethyl)benzyl]piperazin-1-yl}-7,8-dihydro[1,2,4]triazolo[4,3-b]pyridazine] gave an IC50 of 2.7 µM.
The compound `Fc1cccc(CN2CCN(C3=Nn4c(nnc4C(F)(F)F)CC3)CC2)c1F` [Example 9, 6-[4-(2,3-difluorobenzyl)piperazin-1-yl]-3-(trifluoromethyl)-7,8-dihydro[1,2,4]triazolo[4,3-b]pyridazine] gave an IC50 of 4.1 µM.
With `Fc1ccc(C(F)F)c(CN2CCN(C3=Nn4c(nnc4C(F)(F)F)CC3)CC2)c1` [Example 10, 6-[4-[2-(difluoromethyl)-5-fluorobenzyl]piperazin-1-yl]-3-(trifluoromethyl)-7,8-dihydro[1,2,4]triazolo[4,3-b]pyridazine] the figure was 1 µM; with `FC(F)(F)c1nnc2n1N=C(N1CCN(Cc3c[nH]c4ccccc34)CC1)CC2` [Example 11, 6-[4-(1H-indol-3-ylmethyl)piperazin-1-yl]-3-(trifluoromethyl)-7,8-dihydro[1,2,4]triazolo[4,3-b]pyridazine], 8.6 µM.
`Fc1ccc2[nH]cc(CN3CCN(C4=Nn5c(nnc5C(F)(F)F)CC4)CC3)c2c1` [Example 12, 6-{4-[(5-fluoro-1H-indol-3-yl)methyl]piperazin-1-yl}-3-(trifluoromethyl)-7,8-dihydro[1,2,4]triazolo[4,3-b]pyridazine] displayed an IC50 of 3.4 µM. This IC50 is about 2.5-fold lower than that of the compound before.
In turn, `N#Cc1ccc2[nH]cc(CN3CCN(C4=Nn5c(nnc5C(F)(F)F)CC4)CC3)c2c1` [Example 13, 3-({4-[3-(trifluoromethyl)-7,8-dihydro[1,2,4]triazolo[4,3-b]pyridazin-6-yl]piperazin-1-yl}methyl)-1H-indole-5-carbonitrile] registered an IC50 of more than 11 µM.
With `OC1(c2ccc(F)cc2)CCN(C2=Nn3c(nnc3C(F)(F)F)CC2)CC1` [Example 14, 4-(4-fluorophenyl)-1-[3-(trifluoromethyl)-7,8-dihydro[1,2,4]triazolo[4,3-b]pyridazin-6-yl]piperidin-4-ol] the figure was more than 15 µM.
Turning to `Cn1nccc1CCOc1ccc(C2CCN(C3=Nn4c(nnc4C(F)(F)F)CC3)CC2)cc1` [Example 15, 6-[4-[4-[2-(1-methyl-1H-pyrazol-5-yl)ethoxy]phenyl]piperidin-1-yl]-3-(trifluoromethyl)-7,8-dihydro[1,2,4]triazolo[4,3-b]pyridazine], the IC50 worked out at 0.94 µM.
Compound `Cn1nccc1CCOc1ccc(N2CCN(C3=Nn4c(nnc4C(F)(F)F)CC3)CC2)cc1` [Example 16, 6-[4-[4-[2-(1-methyl-1H-pyrazol-5-yl)ethoxy]phenyl]piperazin-1-yl]-3-(trifluoromethyl)-7,8-dihydro[1,2,4]triazolo[4,3-b]pyridazine] showed an IC50 of 3.2 µM.
On to `FC(F)(F)c1nnc2n1N=C(N1CC=C(c3c[nH]c4ncccc34)CC1)CC2` [Example 17, 6-[4-(1H-pyrrolo[2,3-b]pyridin-3-yl)-3,6-dihydropyridin-1(2H)-yl]-3-(trifluoromethyl)-7,8-dihydro[1,2,4]triazolo[4,3-b]pyridazine], for which the IC50 was 4.4 µM.
